# Experimental data as given in US20250127787A1, “METHODS FOR TREATING PERIPHERAL NEUROPATHY” (University of Pittsburgh - Of the Commonwealth System of …, priority 2021, published 2025).
# Entries after “also recorded” stand apart in the source; their conditions may differ.
# System: protein carbonylation
# Test: Protein carbonylation in PAC-CIPN rat epidermis
# Type: in vivo
# Conditions: 8-AG 5 mg/kg/day in drinking water
# Procedure: Animals: This study employed female Harlan Sprague Dawley (HSD) rats (3-4 mo; Envigo, Indianapolis, IN) and were divided into the following groups: 1) Control, 2) Cyclophosphamide (CYP, 75 mg/kg i.p. in saline vehicle; administered on days 0, 3 and 6 until sacrifice on day 8); 4) Paclitaxel (2 mg/kg i.p., 2 mg/kg i.p. in saline from a stock solution of 50/50 CremophorEL/ethanol); administered on days 0, 2, 4 and 6 until sacrifice on day 8; 4) 8-aminoguanine (8-AG; 5 mg/kg/day in drinking water; beginning 2 weeks prior to either CYP or PAC and continuing until sacrifice (day 8)). The dose of 8-AG was based on the experiments described above. […] All tissues (spinal cord and hindpaw epidermis) were removed from isoflurane anesthetized rats and the tissue was used for various experimental approaches as described below. At the end of tissue removal, animals were sacrificed by thoracotomy. […]
smiles,measurement,value
"Nc1nc2[nH]c(N)nc2c(=O)[nH]1 [8-AG, 8-Aminoguanine]",effect on PAC-induced protein carbonylation,restored values to that of a control state; also recorded: significantly reduced
